Results on 14 molecules are retold here after PubChem BioAssay AID248 (DTP/NCI, 2004).

Several values for one entry are separate records, joined by “and”; a condition that tells them apart may be missing. Identical values can stand only once. Toxic doses and inconclusive results are not listed.

The subject of the assay is L1210 leukemia ip in BDF1 mice, survival T/C. The assay is described as follows: NCI In Vivo Anticancer Drug Screen. Data for tumor model L1210 Leukemia (intraperitoneal) in B6D2F1 (BDF1) mice. Particulars: endpoint: mean survival time, higher = longer survival. In short, it runs like this: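 Antitumor effect is assessed in tumor-bearing animals. Survival in the compound arm is compared with a vehicle-dosed control arm and expressed as their quotient.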

The mark [1] stands for this setting: dose: 12.5 mg/kg/injection, schedule: Q04DX003 (ip), vehicle: saline.
Setting [2] is: dose: 200.0 mg/kg/injection, schedule: Q01DX001 (ip), vehicle: saline.
Where [3] appears, read: dose: 100.0 mg/kg/injection, schedule: Q01DX009 (ip), vehicle: Klucel (hydroxypropylcellulose) (HPC).
The mark [4] stands for this setting: dose: 100.0 mg/kg/injection, schedule: Q04DX003 (ip), vehicle: Klucel (hydroxypropylcellulose) (HPC).
[5] abbreviates: dose: 200.0 mg/kg/injection, schedule: Q01DX009 (ip), vehicle: Klucel (hydroxypropylcellulose) (HPC).
Setting [6] is: dose: 200.0 mg/kg/injection, schedule: Q04DX003 (ip), vehicle: Klucel (hydroxypropylcellulose) (HPC).
Setting [7] is: dose: 400.0 mg/kg/injection, schedule: Q04DX003 (ip), vehicle: Klucel (hydroxypropylcellulose) (HPC).
[8] abbreviates: dose: 100.0 mg/kg/injection, schedule: Q01DX009 (ip), vehicle: saline with Tween-80.
Setting [9] is: dose: 200.0 mg/kg/injection, schedule: Q01DX009 (ip), vehicle: saline with Tween-80.
Where [10] appears, read: dose: 100.0 mg/kg/injection, schedule: Q04DX003 (ip), vehicle: saline with Tween-80.
Setting [11] is: dose: 100.0 mg/kg/injection, schedule: Q01DX001 (ip), vehicle: Klucel (hydroxypropylcellulose) (HPC).
Where [12] appears, read: dose: 200.0 mg/kg/injection, schedule: Q01DX001 (ip), vehicle: Klucel (hydroxypropylcellulose) (HPC).
Where [13] appears, read: dose: 400.0 mg/kg/injection, schedule: Q01DX001 (ip), vehicle: Klucel (hydroxypropylcellulose) (HPC).

Take `Cc1nc(N)nc(N)c1-c1ccc(Cl)c(Cl)c1`: the T/C runs as follows: (dose: 0.6 mg/kg/injection, schedule: Q01DX Z (ip), vehicle: methylcellulose (MC)) 106 % of control; (dose: 1.0 mg/kg/injection, schedule: Q01DX009 (ip), vehicle: saline with Tween-80) 102 % of control; (dose: 1.0 mg/kg/injection, schedule: Q01DX Z (ip), vehicle: methylcellulose (MC)) 102 % of control; (dose: 1.0 mg/kg/injection, schedule: Q04DX009 (ip), vehicle: Klucel (hydroxypropylcellulose) (HPC)) 96 % of control; (dose: 1.08 mg/kg/injection, schedule: Q01DX009 (ip), vehicle: saline) 117 % of control; (dose: 1.5 mg/kg/injection, schedule: Q01DX Z (ip), vehicle: methylcellulose (MC)) 106 % of control. Also, the T/C was 107 % of control (dose: 1.8 mg/kg/injection, schedule: Q01DX009 (ip), vehicle: saline); 120 % of control (dose: 2.0 mg/kg/injection, schedule: Q04DX009 (ip), vehicle: Klucel (hydroxypropylcellulose) (HPC)); 112 % of control (dose: 2.3 mg/kg/injection, schedule: Q01DX Z (ip), vehicle: methylcellulose (MC)); 114 % of control (dose: 3.0 mg/kg/injection, schedule: Q01DX009 (ip), vehicle: saline); 152 % of control (dose: 3.0 mg/kg/injection, schedule: Q01DX010 (sc), vehicle: other); 152 % of control (dose: 4.0 mg/kg/injection, schedule: Q01DX010 (sc), vehicle: other). For the same molecule, the T/C runs as follows: (dose: 4.0 mg/kg/injection, schedule: Q01DX Z (ip), vehicle: methylcellulose (MC)) 118 % of control; (dose: 5.0 mg/kg/injection, schedule: Q01DX009 (ip), vehicle: saline) 122 % of control; (dose: 6.0 mg/kg/injection, schedule: Q01DX Z (ip), vehicle: methylcellulose (MC)) 123 % of control; (dose: 8.0 mg/kg/injection, schedule: Q01DX009 (ip), vehicle: saline with Tween-80) 102 % of control; (dose: 8.0 mg/kg/injection, schedule: Q04DX009 (ip), vehicle: Klucel (hydroxypropylcellulose) (HPC)) 115 % of control; (dose: 8.4 mg/kg/injection, schedule: Q04DX003 (ip), vehicle: saline) 102 % of control. The T/C was 95 % of control under setting [1]; 115 % of control (dose: 14.0 mg/kg/injection, schedule: Q04DX003 (ip), vehicle: saline); 90 % of control (dose: 16.0 mg/kg/injection, schedule: Q01DX009 (ip), vehicle: saline with Tween-80); 110 % of control (dose: 16.0 mg/kg/injection, schedule: Q04DX009 (ip), vehicle: Klucel (hydroxypropylcellulose) (HPC)); 105 % of control (dose: 23.0 mg/kg/injection, schedule: Q04DX003 (ip), vehicle: saline); 98 % of control (dose: 25.0 mg/kg/injection, schedule: Q01DX001 (ip), vehicle: saline). In addition, the T/C (dose: 25.0 mg/kg/injection, schedule: Q04DX003 (ip), vehicle: saline) was 122 % of control; the T/C (dose: 39.0 mg/kg/injection, schedule: Q04DX003 (ip), vehicle: saline) was 119 % of control; the T/C (dose: 50.0 mg/kg/injection, schedule: Q01DX001 (ip), vehicle: saline) is 112 % of control; the T/C (dose: 65.0 mg/kg/injection, schedule: Q04DX003 (ip), vehicle: saline) is 115 % of control; the T/C under setting [2] is 88 % of control.

On to `O=[N+]([O-])c1cccc(C=Nc2cccc(C(F)(F)F)c2)c1`, for which the T/C by setting is: under setting [3], 109 % of control; under setting [4], 110 % of control; under setting [5], 98 % of control; under setting [6], 110 % of control; under setting [7], 101 % of control.

Turning to `CCCCCCCCC1SC1CCCCCCCC(=O)OCCCOC(=O)CCCCCCCC1SC1CCCCCCCC` (stereo unspecified), the T/C by setting is: under setting [8], 98 % of control; under setting [9], 93 % of control; (dose: 400.0 mg/kg/injection, schedule: Q01DX009 (ip), vehicle: saline with Tween-80) 96 % of control.

In the case of `CN1CCN(C(=S)Nc2ccc([N+](=O)[O-])cc2)CC1`, the T/C was 98 % of control under setting [3]; 105 % of control under setting [5]; 96 % of control (dose: 400.0 mg/kg/injection, schedule: Q01DX009 (ip), vehicle: Klucel (hydroxypropylcellulose) (HPC)).

As to `Nc1ccc(CCCC(=O)Nc2ccc(S(=O)(=O)F)cc2)cc1`, the T/C by setting is: (dose: 100.0 mg/kg/injection, schedule: Q01DX001 (ip), vehicle: saline) 101 % of control; under setting [2], 97 % of control; (dose: 400.0 mg/kg/injection, schedule: Q01DX001 (ip), vehicle: saline) 103 % of control.

Regarding `COc1c(NS(=O)(=O)c2ccccc2)cc2c3c(cccc13)CC2`, the T/C is, setting by setting: under setting [10], 97 % of control; (dose: 200.0 mg/kg/injection, schedule: Q04DX003 (ip), vehicle: saline with Tween-80) 93 % of control; (dose: 400.0 mg/kg/injection, schedule: Q04DX003 (ip), vehicle: saline with Tween-80) 101 % of control.

`O=C(O)C1=NNC(C(=O)O)=NN1`: the T/C by setting is: under setting [11], 92 % of control; under setting [12], 100 % of control; under setting [13], 104 % of control.

In the case of `CCOC(=O)/C=C(/Nc1ccc(S(=O)(=O)F)cc1)c1ccccc1`, the T/C reads like this: under setting [11], 104 % of control; under setting [12], 100 % of control; under setting [13], 98 % of control.

With `Cc1ccc2c[n+]3cc4ccccc4cc3cc2c1`, the T/C (dose: 1.56 mg/kg/injection, schedule: Q04DX003 (ip), vehicle: saline) is 93 % of control; the T/C (dose: 3.12 mg/kg/injection, schedule: Q01DX009 (ip), vehicle: saline) was 107 % of control; the T/C (dose: 3.12 mg/kg/injection, schedule: Q04DX003 (ip), vehicle: saline) is 114 % of control; the T/C (dose: 6.25 mg/kg/injection, schedule: Q01DX009 (ip), vehicle: saline) is 105 % of control; the T/C (dose: 6.25 mg/kg/injection, schedule: Q04DX003 (ip), vehicle: saline) was 103 % of control; the T/C under setting [1] is 107 % of control.

With `Cn1nnc(N/N=C/c2ccccc2)n1`, the T/C runs as follows: (dose: 6.25 mg/kg/injection, schedule: Q04DX003 (ip), vehicle: saline with Tween-80) 100 % of control; (dose: 12.5 mg/kg/injection, schedule: Q04DX003 (ip), vehicle: saline with Tween-80) 107 % of control; (dose: 25.0 mg/kg/injection, schedule: Q01DX009 (ip), vehicle: saline with Tween-80) 94 % of control; (dose: 25.0 mg/kg/injection, schedule: Q04DX003 (ip), vehicle: saline with Tween-80) 94 % of control and 109 % of control; (dose: 50.0 mg/kg/injection, schedule: Q04DX003 (ip), vehicle: saline with Tween-80) 95 % of control; under setting [10], 88 % of control.

Consider `O=C1CCSC1`, for which the T/C is 87 % of control (dose: 50.0 mg/kg/injection, schedule: Q01DX009 (ip), vehicle: saline with Tween-80); 98 % of control under setting [8]; 98 % of control under setting [9].

For `NC(C1SCCS1)C(O)C(O)C(O)CO` (stereo unspecified), the T/C reads like this: (dose: 100.0 mg/kg/injection, schedule: Q01DX009 (ip), vehicle: saline) 98 % of control; (dose: 200.0 mg/kg/injection, schedule: Q01DX009 (ip), vehicle: saline) 91 % of control; (dose: 400.0 mg/kg/injection, schedule: Q01DX009 (ip), vehicle: saline) 96 % of control.

For `O=C(Nc1ccccc1C(F)(F)F)OCCOc1ccccc1Cl`, the T/C is 92 % of control under setting [4], 92 % of control under setting [6] and 92 % of control under setting [7].

For the molecule `CC(=O)Nn1nnnc1N`, the T/C runs as follows: (dose: 100.0 mg/kg/injection, schedule: Q04DX003 (ip), vehicle: saline) 99 % of control; (dose: 200.0 mg/kg/injection, schedule: Q04DX003 (ip), vehicle: saline) 91 % of control; (dose: 400.0 mg/kg/injection, schedule: Q04DX003 (ip), vehicle: saline) 105 % of control.
